# Patent publication US20240025849A1 (MAX DELBRÜCK-CENTRUM FÜR MOLEKULARE MEDIZIN IN DER …, priority 2020, published 2024)
# “Also recorded” adds a separate entry of the source. Read-outs that look alike come from different tables or passages of the source.
# How the values were obtained:
# [1] = test system: oligodendrocyte cell line OLN-93; experiment: AlamarBlue assay in OLN-93 cells; type: cell-based; conditions: 2.5 μM C1, 48 hours, unstimulated
# Experimental: Cell culture of immortalized cell lines: microglia cell line BV2, and oligodendrocyte cell line OLN-93. The immortalized murine microglia cell line BV2 (Blasi et al., 1990) and the oligodendrocyte cell line OLN-93 (Richter-Landsberg and Heinrich, 1996) were incubated in T75 flasks with plain medium. The cells were split every 2 to 3 days at the dilution 1:10 before they reached confluence. To do so, the cells were washed twice with PBS, followed by up to 5 min of trypsination. The trypsination was stopped using plain medium. The cells were centrifuged at 300 g for 10 min at 4° C., the supernatant was discarded, and the cells were resuspended in new medium and seeded into a new flask.
# AlamarBlue assay. Cells were seeded according to the protocols described above, after compounds and stimuli were added, the cells were washed once with HBSS (37° C.) and 100 μl of a 1:10 AlamarBlue (Thermo Fisher Scientific) dilution in plain medium was added. The conversion of resazurin to resorufin was measured by absorbance (absorbance wavelength of 570 nm and a reference wavelength of 600 nm) after 3 hours.
# The inventors evaluated the metabolic activity, proliferation and cell death of primary cultured neonatal microglia, primary cultured neonatal astrocytes and the oligodendrocyte cell line OLN-93 under physiological conditions. […]
# [2] = test system: nNOS; experiment: NOS enzyme activity assay (Eurofins), nNOS; type: biochemical; conditions: C1: 1 nM and 1 μM; 30 min reaction
# Experimental: In mammalians NO is produced by the three isoforms of NOS: iNOS, eNOS, and nNOS. To evaluate the direct influence of cl on the different isoforms of NOS, an enzyme activity assay was conducted by Eurofins. C1 was mixed with the enzyme buffer, which included co-factors and substrates and by adding the enzyme the reaction was initiated. After 30 min the reaction was stopped, and NO concentration was measured. The results are normalised to positive control performed without any additional compounds and are presented as percentage in inhibition. […] To test the compounds effect on iNOS a concentration range from […] 5 μM were applied ([…], 1, 10, 100 nM, 1, and 5 μM), and for testing eNOS and nNOS 1 nM and 1 μM were applied.
# [3] = test system: primary cultured neonatal microglia; experiment: PolyIC induced NO release, Griess assay; type: cell-based, mouse; conditions: for NO concentration, % of stimulated control: 100 μg/ml PolyIC 24 hours
# Experimental: (§1) Primary cultured neonatal microglia. For preparation of cultured neonatal microglia, P0-P3 mice were used. 10 brains were extracted, meninges and cerebellum were removed and put on ice with Hank's balanced salt solution (HBSS). The dissected brains were washed 3 times before adding 400 μL trypsin (0.1 mg/L) and DNAse (5 μg/L) in phosphate buffered saline (PBS). After 2 min of incubation with this solution, the reaction was blocked by adding plain medium. After removal of the medium, 1 mg DNAse was added and the cells were mechanically dissociated, with a Pasteur pipette followed by a glass pipette. The cells were centrifuged for 10 min at 129 g at 4° C. The supernatant was discarded. The pellet was resuspended in plain medium and plated (2.5 brains/flask) in Poly-L-Lysine coated flasks. The cells were washed after 2 days with PBS and incubated for another 7 days in plain medium. Afterwards the medium was replaced by plain medium with 33% L929 conditioned medium. After 2 days, cells were harvested by shaking them for 30 min at 150 rpm. The supernatant was centrifuged for 10 min at 129 g at 4° C. The cells were plated into a 96 well plate (100 000 cells/well, 200 μL medium per well). This procedure could be repeated 2 times with a 2 day interval.
# (§2) Griess assay. Cells were seeded according to the protocols described above, after compounds and stimuli were added, 100 μl of supernatant was transferred into a new 96 well plate and 100 μl freshly mixed Griess reagent were added. Griess reagent was composed of reagent A (100 mg Naphthylethylene in 50 ml aqua dest.) and reagent B (1 g Sulfanilamide, […] H3PO4 (85%) in 44 mL aqua dest.) mixed 1:1. The solution was carefully mixed and the absorbance was determined in a microplate reader at a wavelength of 550 nm.
# In order to test whether C1 decreases NO release induced by other stimulation agents besides LPS which is mimicking a bacterial infection, the inventors used IFNγ to mimic a Th1 cell response (Yau et al., 2016) and PolyIC to mimic an anti-viral response (Jiang and Pisetsky, 2006). Given that our aim is to determine the compound's effect on already stimulated microglia (LPS, IFNγ, and PolyIC), each individual experiment is normalized to its stimulated control.
# [4] = test system: primary cultured neonatal microglia; experiment: Propidium iodide based proliferation and cell death assay in microglia; conditions: 2.5 μM C1, 48 hours, unstimulated
# Experimental: as §1, with “Afterwards the medium was replaced by plain medium with 33% L929 conditioned medium. After 2 days, cells were harvested by shaking them for 30 min at 150 rpm. The supernatant was centrifuged for 10 min at 129 g at 4° C. The cells were plated into a 96 well plate (100 000 cells/well, 200 μL medium per well). This procedure could be repeated 2 times with a 2 day interval.” left out
# Propidium iodide based proliferation and cell death assay. […] The intensity of the propidium iodide signal of the dead cells was measured using a microplate reader. Afterwards, all cells were killed with a 10 min incubation of 10% DMSO and the propidium iodide signal of all cells was measured. […] The percentage of dead cells was calculated by dividing the dead-cell-signal by the all-cell-signal. Proliferation was calculated as a relative value to the plain medium control.
# [5] = test system: primary cultured neonatal microglia; experiment: LPS induced NO release, Griess assay, laboratory scaled setup; type: cell-based, mouse; conditions: for IC50: 96 well plate, 1 h C1, then 1 μg/ml LPS 48 h, 2 nM to 20 μM, read-out: IC50, LPS induced NO release
# Experimental: as §1, §2
# Dissolved sodium nitrite in plain medium served as a standard. Total amount of nitrite was calculated by a linear regression of the standard curve.
# The activity of the compounds listed in column 1 of Table 1 as inhibitors of NO production was compared in murine primary cultured neonatal microglia as described above.
compound,measurement,setting,value
COc1ccc(NC(=O)C(NC(=O)C2CCCN2C(=O)OCc2ccccc2)c2ccc(OC)cc2)cc1 (stereo not drawn) [C1],metabolic activity of OLN-93 cells,[1],increased the metabolic activity in oligodendrocytes compared to DMSO (p=0.0431) but not compared to plain medium; also recorded: not affected
same,enzymatic activity of nNOS,[2],does not interfere
same,"NO concentration, % of stimulated control",[3]; 25 nM C1,66%
same,"NO concentration, % of stimulated control",[3]; 250 nM C1,29%
same,"NO concentration, % of stimulated control",[3]; 2.5 μM C1,25%
same,NO release upon stimulation with PolyIC,[3]; pre-treatment with C1,dose dependent decrease
same,percentage of dead cells in microglia,[4],8.49%
same,IC50,[5],250 nM
same,NO release in unstimulated microglia,"[5]; C1 alone 0.025, 0.25, 2.5 μM, 48 hours, no LPS",did not show any significant difference; also recorded: did neither change the NO release
same,IC50,"[5]; Mus musculus, Microglia",252 nM
same,NO concentration in supernatant vs plain medium / DMSO,"[5]; post-treatment with 2.5 μM C1 after 24 hours LPS, from 8 hours (plain medium), 12 hours (DMSO)",significantly reduced; also recorded: significant reduction
same,calculated plateau of NO concentration in supernatant,"[5]; post-treatment: 24 hours LPS, medium change, then 2.5 μM C1 up to 60 hours",7 µM
